Assay results: paper PMC4954948, “Functional and modular analyses of diverse endoglucanases from Ruminococcus albus 8, a specialist plant cell wall degrading bacterium” (Scientific Reports, 2016)

Legend:
Assay in all cases: isothermal titration calorimetry
Assay type in all cases: binding
Ra2535 TM1 = biological target: T1, Ra2535 TM1 (Hominimerdicola alba, UniProt E9SAY7); details: 25 °C, 50 mM sodium phosphate, 150 mM NaCl, pH 6.5; single site model; read-out: affinity constant (converted)
T1 construct: gene CUS_8100
T1 sequence (E9SAY7 entry or part of it): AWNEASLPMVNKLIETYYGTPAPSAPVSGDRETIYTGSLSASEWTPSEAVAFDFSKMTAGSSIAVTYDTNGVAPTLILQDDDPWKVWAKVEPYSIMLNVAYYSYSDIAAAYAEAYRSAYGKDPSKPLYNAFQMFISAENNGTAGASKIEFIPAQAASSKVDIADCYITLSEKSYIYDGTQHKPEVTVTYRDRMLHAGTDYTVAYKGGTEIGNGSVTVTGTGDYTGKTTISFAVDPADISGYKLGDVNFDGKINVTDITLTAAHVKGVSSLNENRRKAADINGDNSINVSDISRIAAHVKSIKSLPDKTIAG
Source text: isothermal titration calorimetry on Ra2535 TM1 | The affinity constants of Ra2535 TM1 and TM2 for cellopentaose were similar

Ra1831 TM1 = biological target: T2, Ra1831 TM1 (Hominimerdicola alba, UniProt E9SGH0); details: 25 °C, 50 mM sodium phosphate, 150 mM NaCl, pH 6.5; weak, parameters not deducible
T2 construct: gene CUS_6389; truncation: C-terminal half of Ra1831 with region of unknown function (CBM65-like) plus CBM37, GH5 domain removed
T2 sequence (E9SGH0 entry or part of it): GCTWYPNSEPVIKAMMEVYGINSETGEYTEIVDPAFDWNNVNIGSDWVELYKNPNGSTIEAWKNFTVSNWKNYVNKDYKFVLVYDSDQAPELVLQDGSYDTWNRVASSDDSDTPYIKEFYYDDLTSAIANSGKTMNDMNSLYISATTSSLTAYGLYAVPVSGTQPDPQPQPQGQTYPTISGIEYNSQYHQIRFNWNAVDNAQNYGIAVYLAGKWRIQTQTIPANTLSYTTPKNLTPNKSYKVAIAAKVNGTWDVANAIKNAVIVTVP

Ra2535 TM2 = biological target: T3, Ra2535 TM2 (Hominimerdicola alba, UniProt E9SAY7); details: 25 °C, 50 mM sodium phosphate, 150 mM NaCl, pH 6.5; single site model; read-out: affinity constant (converted)
T3 construct: gene CUS_8100
T3 sequence (E9SAY7 entry or part of it): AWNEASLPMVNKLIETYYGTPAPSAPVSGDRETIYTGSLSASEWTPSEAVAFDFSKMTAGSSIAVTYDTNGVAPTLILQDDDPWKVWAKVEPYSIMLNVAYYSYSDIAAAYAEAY
Source text: isothermal titration calorimetry on Ra2535 TM2 | The affinity constants of Ra2535 TM1 and TM2 for cellopentaose were similar

- Kd (Ra2535 TM1): 5.95 µM
- Kd (Ra2535 TM2): 5.95 µM
SMILES: OC[C@H]1O[C@@H](O[C@H]2[C@H](O)[C@@H](O)[C@H](O[C@H]3[C@H](O)[C@@H](O)[C@H](O[C@H]4[C@H](O)[C@@H](O)[C@H](O[C@H]5[C@H](O)[C@@H](O)C(O)O[C@@H]5CO)O[C@@H]4CO)O[C@@H]3CO)O[C@@H]2CO)[C@H](O)[C@@H](O)[C@@H]1O (stereo partly drawn) [cellopentaose]
- isothermal titration calorimetry (Ra1831 TM1): The representative ITC data for Ra1831 TM1 was not very different from that of TM2
